In patent publication US20060189608A1, “Methods for treating ocular angiogenesis, retinal edema, retinal ischemia, and diabetic retinopathy using selective RTK inhibitors” (Alcon, Inc., priority 2005, published 2006):

Assays:
[1] = system: existing laser-induced choroidal neovascularization (CNV); experiment: Laser-induced CNV, oral gavage, regression paradigm, mouse; type: in vivo; conditions: for Mean CNV / Median CNV: regression
Experimental: Methods. CNV was generated by laser-induced rupture of Bruch's membrane. Briefly, 4 to 5 week old male C57BL/6J mice were anesthetized using intraperitoneal administration of ketamine hydrochloride (100 mg/kg) and xylazine (5 mg/kg) and the pupils of both eyes dilated with topical ocular instillation of 1% tropicamide and 2.5% Mydfin®. One drop of topical cellulose (Gonioscopic®) was used to lubricate the cornea. A hand-held cover slip was applied to the cornea and used as a contact lens to aid visualization of the fundus. Three to four retinal burns were placed in randomly assigned eye (right or left eye for each mouse) using the Alcon 532 nm EyeLite laser with a slit 5 lamp delivery system. The laser burns were used to generate a rupture in Bruch's membrane, which was indicated ophthalmoscopically by the formation of a bubble under the retina. Only mice with laser burns that produced three bubbles per eye were included in the study. Bums were typically placed at the 3, 6, 9 or 12 o'clock positions in the posterior pole of the retina, avoiding the branch retinal arteries and veins.
Each mouse was randomly assigned into one of the following treatment groups: noninjected controls, sham-injected controls, vehicle-injected mice, or one of three RTKi-injected groups. Control mice received laser photocoagulation in both eyes, where one eye received a sham injection, i.e. a pars plana needle puncture. […] The intravitreal injection was performed immediately after laser photocoagulation. At 14 days post-laser, all mice were anesthetized and systemically perfused with fluorescein-labeled dextran. Eyes were then harvested and prepared as choroidal flat mounts with the RPE side oriented towards the observer. All choroidal flat mounts were examined using a fluorescent microscope. Digital images of the CNV were captured, where the CNV was identified as areas of hyperfluorescence within the pigmented background. Computerized image analysis was used to delineate and measure the two dimensional area of the hyperfluorescent CNV per lesion (um^2) for the outcome measurement. The median CNV area/burn per mouse per treatment group or the mean CNV area/burn per treatment group was used for statistical analysis depending on the normality of data distribution; P≦0.05 was considered significant.
METHODS: CNV was generated by laser-induced rupture of Bruch's membrane as described in Example 3 above. […] The mice received an oral gavage of 0, 1.5, 5, or 10 mg/kg twice per day and for 14 days post-laser. […] Oral gavage dosing was continued twice per day for 14 days post-laser. Several mice were Is euthanized at day 7 post-laser and used for controls. At 14 days post-laser, all mice were anesthetized and systemically perfused with fluorescein-labeled dextran. Eyes were then harvested and prepared as choroidal flat mounts as described in Example 3 above.

rat OIR model = experiment: Preretinal neovascularization, rat OIR model, oral gavage; type: in vivo, Sprague-Dawley rats; conditions: for % Inhibition (vs vehicle-injected eye): preretinal NV
Experimental: (§1) Immediately following euthanasia, retinas from all rat pups were harvested, fixed in 10% neutral buffered formalin for 24 hours, subjected to ADPase staining, and fixed onto slides as whole mounts. Digital images were acquired from each retinal flat mount that was adequately prepared. Computerized image analysis was used to obtain a NV clockhour score from each readable sample. Each clockhour out of 12 total per retina was assessed for the presence or absence of preretinal NV. Statistical comparisons using median scores for NV clockhours from each treatment group were utilized in nonparametric analyses. Each noninjected pup represented one NV score by taking the average value of both eyes and was used in comparisons against each dosage group. Because the pups were randomly assigned and no difference was observed between oxygen-exposed control pups from all litters, the NV scores were combined for all treatment groups. P≦0.05 was considered statistically significant.
METHODS: Pregnant Sprague-Dawley rats were received at 14 days gestation and subsequently gave birth on Day 22±1 of gestation. Immediately following parturition, pups were pooled and randomized into separate litters (n=17 pups/litter), placed into separate shoebox cages inside oxygen delivery chamber, and subjected to an oxygen-exposure profile from Day 0 to Day 14 postpartum. Litters were then placed into room air from Day 14/0 through Day 14/6 (days 14-20 postpartum). Additionally on Day 14/0, each pup was randomly assigned as oxygen-exposed controls, vehicle treated, or drug-treated at 1.5, 5, 10 mg/kg, p.o., BID. At Day 14/6 (20 days postpartum), all animals in both studies were euthanized and retina whole mounts were prepared as described in Example 1 above.

LYN = LYN (Homo sapiens, UniProt P07948); experiment: Kinase inhibition profile, non-related TK; type: biochemical; conditions: ATP concentration of 1 nM
Sequence of LYN (P07948 whole entry): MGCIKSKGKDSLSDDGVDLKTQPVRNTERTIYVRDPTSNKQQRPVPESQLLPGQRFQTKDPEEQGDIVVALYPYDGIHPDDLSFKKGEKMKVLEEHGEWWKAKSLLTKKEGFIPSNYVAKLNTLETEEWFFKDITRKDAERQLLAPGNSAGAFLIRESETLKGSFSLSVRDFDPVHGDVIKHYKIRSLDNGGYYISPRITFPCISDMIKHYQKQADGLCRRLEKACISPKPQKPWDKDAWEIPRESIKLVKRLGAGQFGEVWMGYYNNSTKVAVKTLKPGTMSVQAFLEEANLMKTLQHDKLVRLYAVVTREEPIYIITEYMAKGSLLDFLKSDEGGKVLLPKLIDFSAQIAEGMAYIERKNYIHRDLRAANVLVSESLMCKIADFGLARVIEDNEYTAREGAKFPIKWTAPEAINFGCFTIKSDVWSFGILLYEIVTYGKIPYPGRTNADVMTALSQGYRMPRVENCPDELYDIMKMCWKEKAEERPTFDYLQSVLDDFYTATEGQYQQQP

INSR = INSR (Homo sapiens, UniProt P06213); experiment: Kinase inhibition profile, non-related TK; type: biochemical; conditions: ATP concentration of 1 nM
Sequence of INSR (P06213 28-1382): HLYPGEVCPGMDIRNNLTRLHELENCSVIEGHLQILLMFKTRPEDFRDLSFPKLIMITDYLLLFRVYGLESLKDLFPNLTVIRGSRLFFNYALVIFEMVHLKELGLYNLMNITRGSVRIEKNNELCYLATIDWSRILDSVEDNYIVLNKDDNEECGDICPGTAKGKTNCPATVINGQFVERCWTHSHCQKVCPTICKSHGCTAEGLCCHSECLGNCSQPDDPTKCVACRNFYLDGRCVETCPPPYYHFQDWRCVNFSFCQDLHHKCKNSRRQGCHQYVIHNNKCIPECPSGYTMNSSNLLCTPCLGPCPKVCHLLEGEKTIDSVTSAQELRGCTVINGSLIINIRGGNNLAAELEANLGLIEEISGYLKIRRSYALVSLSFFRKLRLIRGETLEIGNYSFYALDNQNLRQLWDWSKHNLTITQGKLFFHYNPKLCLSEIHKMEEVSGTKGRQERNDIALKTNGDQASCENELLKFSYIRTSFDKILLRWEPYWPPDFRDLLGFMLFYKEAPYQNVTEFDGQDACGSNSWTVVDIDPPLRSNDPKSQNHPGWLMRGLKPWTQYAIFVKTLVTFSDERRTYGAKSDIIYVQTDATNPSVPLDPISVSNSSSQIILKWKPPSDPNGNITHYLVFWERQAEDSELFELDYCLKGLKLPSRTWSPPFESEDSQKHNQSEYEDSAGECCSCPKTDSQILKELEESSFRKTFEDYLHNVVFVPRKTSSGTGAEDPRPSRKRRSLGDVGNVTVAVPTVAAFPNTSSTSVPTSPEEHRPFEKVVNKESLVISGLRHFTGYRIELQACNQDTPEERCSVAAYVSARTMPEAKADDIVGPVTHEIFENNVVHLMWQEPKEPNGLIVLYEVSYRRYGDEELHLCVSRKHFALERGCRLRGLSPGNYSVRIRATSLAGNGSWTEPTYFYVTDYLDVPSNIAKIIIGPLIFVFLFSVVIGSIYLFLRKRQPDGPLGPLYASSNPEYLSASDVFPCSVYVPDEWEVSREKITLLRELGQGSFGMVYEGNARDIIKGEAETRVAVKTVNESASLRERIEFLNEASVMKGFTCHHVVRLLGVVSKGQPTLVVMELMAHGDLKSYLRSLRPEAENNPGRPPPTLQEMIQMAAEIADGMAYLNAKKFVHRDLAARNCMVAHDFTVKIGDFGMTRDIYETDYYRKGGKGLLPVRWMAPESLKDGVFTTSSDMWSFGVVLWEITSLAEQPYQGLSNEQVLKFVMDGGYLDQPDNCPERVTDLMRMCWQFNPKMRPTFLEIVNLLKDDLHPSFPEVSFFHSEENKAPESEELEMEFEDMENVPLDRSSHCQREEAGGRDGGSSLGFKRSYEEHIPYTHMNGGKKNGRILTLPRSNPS

[2] = system: rat model of oxygen-induced retinopathy; experiment: Preretinal neovascularization, rat OIR model, intravitreal injection; type: in vivo, Sprague-Dawley rats; conditions: for % Inhibition (vs. vehicle-injected eye) / Median NV / NV Range: 5 μl intravitreal; for % Inhibition (vs. vehicle-injected eye): preretinal NV; for Median NV / NV Range: NV clockhour score
From the text: METHODS: Pregnant Sprague-Dawley rats were received at 14 days gestation and subsequently gave birth on Day 22±1 of gestation. Immediately following parturition, pups were pooled and randomized into separate litters (n=17 pups/litter), placed into separate shoebox cages inside oxygen delivery chamber, and subjected to an oxygen-exposure profile from Day 0-14 postpartum. Litters were then placed into room air from Day 14/0 through Day 14/6 (days 14-20 postpartum). Additionally on Day 14/0, each pup was randomly assigned as an oxygen-exposed control or into various treatment groups. […] At Day 14/6 (20 days postpartum), all animals in both studies were euthanized.
as §1

## Cc1ccc(F)c(NC(=O)Nc2ccc(-c3cccc4[nH]nc(N)c34)cc2)c1 [AL-39324, N-[4-[3-amino-1H-indazol-4-yl)phenyl]-N′-(2-fluoro-5-methylphenyl)urea]
[1]; 3 mg/kg/day oral from day 7 post-laser
  regression of existing CNV: did not show a significant regression of existing CNV
[1]; 3 mg/kg/day oral
  Mean CNV: 35442 μm^2
  Median CNV: 33967 μm^2
[1]; 10 mg/kg/day oral from day 7 post-laser
  regression of existing CNV as compared to nontreated controls: 41.8%
[1]; 10 mg/kg/day oral
  Mean CNV: 29773 μm^2
  Median CNV: 27389 μm^2
[1]; 20 mg/kg/day oral from day 7 post-laser
  regression of existing CNV as compared to nontreated controls: 68.0%
[1]; 20 mg/kg/day oral
  Mean CNV: 15706 μm^2
  Median CNV: 15036 μm^2
Rat OIR model; 3 mg/kg in PEG 400, p.o.
  Median NV: 7.5
  NV Range: 3.8-9.8
Rat OIR model; 3 mg/kg in PEG 400, p.o. (per day, BID)
  % Inhibition (vs vehicle-injected eye): −1.4%
Rat OIR model; 3 mg/kg/day p.o.
  decrease in NV: did not have a significant decrease in NV
Rat OIR model; 10 mg/kg in PEG 400, p.o.
  Median NV: 1.105
  NV Range: 0-8
Rat OIR model; 10 mg/kg in PEG 400, p.o. (per day, BID)
  % Inhibition (vs vehicle-injected eye): 86.4%
Rat OIR model; 20 mg/kg in PEG 400, p.o.
  Median NV: 0
  NV Range: 0
Rat OIR model; 20 mg/kg in PEG 400, p.o. (per day, BID)
  % Inhibition (vs vehicle-injected eye): 100%
Rat OIR model; 20 mg/kg/day p.o.
  inhibition of preretinal NV: complete inhibition of preretinal NV
LYN
  IC50: > 20 µM
INSR
  IC50: > 50 µM
[2]; 0.1% treated eyes
  efficacy against preretinal NV: Efficacy was not observed
[2]; 0.1%
  % Inhibition (vs. vehicle-injected eye): 37%
  Median NV: 2.835
  NV Range: 1.1-5.3
[2]; 0.3%
  % Inhibition (vs. vehicle-injected eye): 100%
  Median NV: 0
  NV Range: 0-5
[2]; 0.6%
  % Inhibition (vs. vehicle-injected eye): 100%
  Median NV: 0
  NV Range: 0-1.1
[2]; 1%
  % Inhibition (vs. vehicle-injected eye): 100%
  Median NV: 0
  NV Range: 0-2
[2]; between 0.3%-1% suspensions, intravitreal
  inhibition of preretinal NV: 100%
